According to ChEMBL document CHEMBL1275533, “In vitro antibacterial activity of vertilmicin and its susceptibility to modifications by the recombinant AAC6'-APH2'' enzyme” (2008):
Converted amounts (≈) assume the structure as drawn. The source made the active and inactive calls. The calls are words filed in the database; no cut-off is given here.

How the values were obtained:
Enterococcus faecalis [1] = experiment: Antibacterial activity against gentamicin-resistant Enterococcus faecalis clinical isolate after 18 hrs by agar dilution method; assay type: functional
Citrobacter koseri [2] = experiment: Antibacterial activity against non-gentamicin-resistant Citrobacter diversus clinical isolate assessed as susceptible isolates after 18 hrs by agar dilution method; assay type: functional
Citrobacter koseri [3] = experiment: Antibacterial activity against gentamicin-resistant Citrobacter diversus clinical isolate after 18 hrs by agar dilution method; assay type: functional
Proteus mirabilis [4] = experiment: Antibacterial activity against non-gentamicin-resistant Proteus mirabilis clinical isolate after 18 hrs by agar dilution method; assay type: functional
Enterococcus faecalis [5] = experiment: Antibacterial activity against gentamicin-resistant Enterococcus faecalis clinical isolate assessed as susceptible isolates after 18 hrs by agar dilution method; assay type: functional, organism-based
Pseudomonas aeruginosa = experiment: Antibacterial activity against gentamicin-resistant Pseudomonas aeruginosa clinical isolate assessed as susceptible isolates after 18 hrs by agar dilution method; assay type: functional
[6] = tested on: Escherichia coli BL21(DE3); experiment: Acetylation activity of AAC(6')-APH(2'') in Escherichia coli BL21(DE3) assessed as production of free pyridine-4-thiolate relative to netilmicin
[7] = tested on: Staphylococcus epidermidis; experiment: Antibacterial activity against gentamicin-resistant Staphylococcus epidermidis clinical isolate after 18 hrs by agar dilution method; assay type: functional
Providencia rettgeri [8] = experiment: Antibacterial activity against non-gentamicin-resistant Proteus rettgeri clinical isolate assessed as susceptible isolates after 18 hrs by agar dilution method; assay type: functional
Klebsiella aerogenes [9] = experiment: Antibacterial activity against non-gentamicin-resistant Enterobacter aerogenes clinical isolate after 18 hrs by agar dilution method; assay type: functional
Proteus mirabilis [10] = experiment: Antibacterial activity against gentamicin-resistant Proteus mirabilis clinical isolate assessed as susceptible isolates after 18 hrs by agar dilution method; assay type: functional
[11] = tested on: Acinetobacter calcoaceticus; experiment: Antibacterial activity against non-gentamicin-resistant Acinetobacter calcoaceticus clinical isolate after 18 hrs by agar dilution method; assay type: functional
Providencia rettgeri [12] = experiment: Antibacterial activity against non-gentamicin-resistant Proteus rettgeri clinical isolate after 18 hrs by agar dilution method; assay type: functional
Klebsiella aerogenes [13] = experiment: Antibacterial activity against gentamicin-resistant Enterobacter aerogenes clinical isolate assessed as susceptible isolates after 18 hrs by agar dilution method; assay type: functional
Staphylococcus aureus [14] = experiment: Antibacterial activity against non-gentamicin-resistant Staphylococcus aureus clinical isolate after 18 hrs by agar dilution method; assay type: functional
Klebsiella pneumoniae [15] = experiment: Antibacterial activity against non-gentamicin-resistant Klebsiella pneumoniae clinical isolate assessed as susceptible isolates after 18 hrs by agar dilution method; assay type: functional
[16] = tested on: Escherichia coli BL21(DE3); experiment: Ratio of Vmax to Km for AAC(6')-APH(2'') in Escherichia coli BL21(DE3) assessed as production of free pyridine-4-thiolate relative to netilmicin
Serratia marcescens = experiment: Antibacterial activity against non-gentamicin-resistant Serratia marcescens clinical isolate assessed as susceptible isolates after 18 hrs by agar dilution method; assay type: functional
Providencia rettgeri [17] = experiment: Antibacterial activity against gentamicin-resistant Proteus rettgeri clinical isolate assessed as susceptible isolates after 18 hrs by agar dilution method; assay type: functional
Escherichia coli [18] = experiment: Antibacterial activity against non-gentamicin-resistant Escherichia coli clinical isolate assessed as susceptible isolates after 18 hrs by agar dilution method; assay type: functional
Escherichia coli [19] = experiment: Antibacterial activity against gentamicin-resistant Escherichia coli clinical isolate after 18 hrs by agar dilution method; assay type: functional
Morganella morganii = experiment: Antibacterial activity against non-gentamicin-resistant Morganella morganii clinical isolate assessed as susceptible isolates after 18 hrs by agar dilution method; assay type: functional
Haemophilus influenzae = experiment: Antibacterial activity against non-gentamicin-resistant Haemophilus influenzae clinical isolate assessed as susceptible isolates after 18 hrs by agar dilution method; assay type: functional, organism-based
Staphylococcus aureus [20] = experiment: Antibacterial activity against non-gentamicin-resistant Staphylococcus aureus clinical isolate assessed as susceptible isolates after 18 hrs by agar dilution method; assay type: functional
Klebsiella pneumoniae [21] = experiment: Antibacterial activity against Klebsiella pneumoniae isolate 01-21 at 1 MIC up to 8 hrs by time-kill study; assay type: functional, organism-based
[22] = tested on: Staphylococcus epidermidis; experiment: Bactericidal activity against Staphylococcus epidermidis isolate 01-55 at >=1 MIC up to 8 hrs by time-kill study; assay type: functional, organism-based
[23] = tested on: Escherichia coli BL21(DE3); experiment: Ratio of Vmax to Km for AAC(6')-APH(2'') in Escherichia coli BL21(DE3) assessed as oxidation of NADH by pyruvate kinase relative to netilmicin
[24] = tested on: Escherichia coli BL21(DE3); experiment: Phosphorylation activity of AAC(6')-APH(2'') in Escherichia coli BL21(DE3) assessed as oxidation of NADH by pyruvate kinase relative to verdamicin
[25] = tested on: Staphylococcus epidermidis; experiment: Antibacterial activity against Staphylococcus epidermidis isolate 01-55 after 18 hrs by agar dilution method; assay type: functional
Escherichia coli [26] = experiment: Antibacterial activity against Escherichia coli ATCC 25922 at MIC up to 8 hrs by time-kill study; assay type: functional, organism-based
Klebsiella pneumoniae [27] = experiment: Antibacterial activity against Klebsiella pneumoniae isolate 01-21 after 18 hrs by agar dilution method; assay type: functional
Staphylococcus aureus [28] = experiment: Bactericidal activity against Staphylococcus aureus ATCC 29213 at >=1 MIC up to 8 hrs by time-kill study; assay type: functional, organism-based
Escherichia coli [29] = experiment: microbe, parasite or virus in culture; details: ATCC 25922, 18 h
Description: Antibacterial activity against Escherichia coli ATCC 25922 after 18 hrs by agar dilution method

Staphylococcus aureus [30] = experiment: Antibacterial activity against Staphylococcus aureus ATCC 29213 after 18 hrs by agar dilution method; assay type: functional

Compound: CN[C@@H]1[C@@H](O)[C@@H](O[C@@H]2[C@@H](O)[C@H](O[C@@H]3OC(C(C)N)=CC[C@@H]3N)[C@@H](N)C[C@H]2N)OC[C@]1(C)O (some centres undefined) [VERDAMICIN]
- MIC50 (Enterococcus faecalis [1]): 128 µg/mL (≈ 277 µM)
- MIC90 (Enterococcus faecalis [1]): > 128 µg/mL
- Activity (Citrobacter koseri [2]): 100%
- MIC50 (Citrobacter koseri [3]): > 128 µg/mL
- MIC90 (Citrobacter koseri [3]): > 128 µg/mL
- MIC50 (Proteus mirabilis [4]): 1 µg/mL (≈ 2.17 µM)
- MIC90 (Proteus mirabilis [4]): 2 µg/mL (≈ 4.33 µM)
- Activity (Enterococcus faecalis [5]): inactive
- Activity (Pseudomonas aeruginosa): 2.9%
- Vmax [6]: 9.6%
- MIC50 [7]: 8 µg/mL (≈ 17.3 µM)
- MIC90 [7]: > 128 µg/mL
- Activity (Providencia rettgeri [8]): 100%
- MIC50 (Klebsiella aerogenes [9]): 0.5 µg/mL (≈ 1.08 µM)
- MIC90 (Klebsiella aerogenes [9]): 1 µg/mL (≈ 2.17 µM)
- Activity (Proteus mirabilis [10]): 18.2%
- MIC50 [11]: 0.5 µg/mL (≈ 1.08 µM)
- MIC90 [11]: 2 µg/mL (≈ 4.33 µM)
- MIC50 (Providencia rettgeri [12]): 2 µg/mL (≈ 4.33 µM)
- MIC90 (Providencia rettgeri [12]): 8 µg/mL (≈ 17.3 µM)
- Activity (Klebsiella aerogenes [13]): 0%
- MIC50 (Staphylococcus aureus [14]): 0.125 µg/mL (≈ 0.271 µM)
- MIC90 (Staphylococcus aureus [14]): 8 µg/mL (≈ 17.3 µM)
- Activity (Klebsiella pneumoniae [15]): 98.8%
- Vmax/Km [16]: 4.5%
- Activity (Serratia marcescens): 96.3%
- Activity (Providencia rettgeri [17]): 20%
- Activity (Escherichia coli [18]): 98.1%
- MIC50 (Escherichia coli [19]): 32 µg/mL (≈ 69.3 µM)
- MIC90 (Escherichia coli [19]): 128 µg/mL (≈ 277 µM)
- Activity (Morganella morganii): 100%
- Activity (Haemophilus influenzae): inactive
- Activity (Staphylococcus aureus [20]): 94.8%

Compound: CCN[C@@H]1C[C@H](N)[C@@H](O[C@@H]2OC(C(C)N)=CC[C@@H]2N)[C@H](O)[C@H]1O[C@H]1OC[C@](C)(O)[C@H](NC)[C@H]1O (some centres undefined) [VERTILMICIN]
- Activity (Klebsiella pneumoniae [21]): Dose-dependent effect
- MIC50 (Enterococcus faecalis [1]): 4 µg/mL (≈ 8.17 µM)
- MIC90 (Enterococcus faecalis [1]): > 128 µg/mL
- Activity (Citrobacter koseri [2]): 100%
- Activity [22]: Dose-dependent effect
- MIC50 (Citrobacter koseri [3]): 32 µg/mL (≈ 65.4 µM)
- MIC90 (Citrobacter koseri [3]): > 128 µg/mL
- MIC50 (Proteus mirabilis [4]): 1 µg/mL (≈ 2.04 µM)
- MIC90 (Proteus mirabilis [4]): 2 µg/mL (≈ 4.08 µM)
- Activity (Enterococcus faecalis [5]): inactive
- Activity (Pseudomonas aeruginosa): 17.6%
- Vmax [6]: 6.5%
- MIC50 [7]: 2 µg/mL (≈ 4.08 µM)
- MIC90 [7]: 16 µg/mL (≈ 32.7 µM)
- Activity (Providencia rettgeri [8]): 92.3%
- MIC50 (Klebsiella aerogenes [9]): 0.5 µg/mL (≈ 1.02 µM)
- MIC90 (Klebsiella aerogenes [9]): 2 µg/mL (≈ 4.08 µM)
- Activity (Proteus mirabilis [10]): 36.4%
- MIC50 [11]: 1 µg/mL (≈ 2.04 µM)
- MIC90 [11]: 2 µg/mL (≈ 4.08 µM)
- MIC50 (Providencia rettgeri [12]): 2 µg/mL (≈ 4.08 µM)
- MIC90 (Providencia rettgeri [12]): 8 µg/mL (≈ 16.3 µM)
- Vmax/Km [23]: 19.9%
- Activity (Klebsiella aerogenes [13]): 30%
- Vmax [24]: 49.8%
- MIC ([25]; isolate 01-55, 18 h): 0.25 µg/mL (≈ 0.511 µM)
- MIC50 (Staphylococcus aureus [14]): 0.125 µg/mL (≈ 0.255 µM)
- MIC90 (Staphylococcus aureus [14]): 2 µg/mL (≈ 4.08 µM)
- Activity (Klebsiella pneumoniae [15]): 97.6%
- Activity (Escherichia coli [26]): Dose-dependent effect
- Vmax/Km [16]: 4.2%
- Activity (Serratia marcescens): 100%
- Activity (Providencia rettgeri [17]): 53.3%
- Activity (Escherichia coli [18]): 100%
- MIC (Klebsiella pneumoniae [27]; isolate 01-21, 18 h): 0.25 µg/mL (≈ 0.511 µM)
- MIC50 (Escherichia coli [19]): 8 µg/mL (≈ 16.3 µM)
- MIC90 (Escherichia coli [19]): 64 µg/mL (≈ 131 µM)
- Activity (Morganella morganii): 100%
- Activity (Haemophilus influenzae): inactive
- Activity (Staphylococcus aureus [28]): Dose-dependent effect
- MIC (Escherichia coli [29]): 0.25 µg/mL (≈ 0.511 µM)
- Activity (Staphylococcus aureus [20]): 94.8%
- MIC (Staphylococcus aureus [30]; ATCC 29213, 18 h): 0.125 µg/mL (≈ 0.255 µM)

Compound: GENTAMICIN
- Activity (Klebsiella pneumoniae [21]): Dose-dependent effect
- MIC50 (Enterococcus faecalis [1]): > 128 µg/mL
- MIC90 (Enterococcus faecalis [1]): > 128 µg/mL
- Activity (Citrobacter koseri [2]): 100%
- Activity [22]: Dose-dependent effect
- MIC50 (Citrobacter koseri [3]): > 128 µg/mL
- MIC90 (Citrobacter koseri [3]): > 128 µg/mL
- MIC50 (Proteus mirabilis [4]): 0.5 µg/mL
- MIC90 (Proteus mirabilis [4]): 1 µg/mL
- Activity (Enterococcus faecalis [5]): inactive
- Activity (Pseudomonas aeruginosa): 0%
- MIC50 [7]: 16 µg/mL
- MIC90 [7]: > 128 µg/mL
- Activity (Providencia rettgeri [8]): 84.6%
- MIC50 (Klebsiella aerogenes [9]): 0.25 µg/mL
- MIC90 (Klebsiella aerogenes [9]): 0.5 µg/mL
- Activity (Proteus mirabilis [10]): 0%
- MIC50 [11]: 0.25 µg/mL
- MIC90 [11]: 2 µg/mL
- MIC50 (Providencia rettgeri [12]): 4 µg/mL
- MIC90 (Providencia rettgeri [12]): 8 µg/mL
- Activity (Klebsiella aerogenes [13]): 0%
- MIC [25]: 1 µg/mL
- MIC50 (Staphylococcus aureus [14]): 0.125 µg/mL
- MIC90 (Staphylococcus aureus [14]): 8 µg/mL
- Activity (Klebsiella pneumoniae [15]): 100%
- Activity (Escherichia coli [26]): Dose-dependent effect
- Activity (Serratia marcescens): 100%
- Activity (Providencia rettgeri [17]): 0%
- Activity (Escherichia coli [18]): 100%
- MIC (Klebsiella pneumoniae [27]): 0.25 µg/mL
- MIC50 (Escherichia coli [19]): 64 µg/mL
- MIC90 (Escherichia coli [19]): > 128 µg/mL
- Activity (Morganella morganii): 76%
- Activity (Haemophilus influenzae): inactive
- Activity (Staphylococcus aureus [28]): Dose-dependent effect
- Activity (Staphylococcus aureus [20]): 85.7%
- MIC (Staphylococcus aureus [30]): 0.125 µg/mL
